The record followed here is US5733879A, “Peptides and proteins, process for their preparation and their use as cholesterol acceptors” (N.V. Innogenetics, S.A., priority 1992, dated 1998).

Where no end group is shown, it is not given here.

The nature of this test: Turbidity decrease at 325 nm on complex formation with DMPC vesicles (lipid binding). The note with it: from turbidity decrease with DMPC vesicles, 15-25° C. The protocol: FIG. 1 represents the turbidity decrease (on the y-axis, expressed as E/Eo, with E being the turbidity measured at different temperature points and Eo being the turbidity measured at 15° C.) at 325 nm upon the formation of complexes with DMPC vesicles as a function of the temperature (°C.), (x-axis) and on which:
The formation of small discoidal particles between DMPC vesicles and the peptides was monitored by measuring the turbidity decrease at 325 nm as a function of temperature. […] The turbidity decrease initiated by the peptide-lipid association started already at 17° C., below the DMPC transition temperature and stabilized around 23° C. The turbidity decrease enables to determine the binding affinity of lipids to the peptides of the invention. M 1 has a strong lipid binding capacity while 18A and M4 have quite similar lipid binding affinity. The lipid binding of M3 is low compared with the other peptides.
Regarding EWLEAFYKKVLEKLKELF [M4], the “lipid binding capacity / affinity” value is given as “quite similar”.
In the case of EWLKAEYEKVEEKLKELF [M3] it was “low”; in that of EWLKAFYKKVLEKLKELF [M1], “strong”.
